Test results published in patent US9750254B2, “Agricultural or horticultural chemical, method of controlling plant diseases, and product for controlling plant diseases” (Kureha Corporation, priority 2013, dated 2017).

Columns and labels:
Assay type in all cases: cell-based
Gaeumannomyces graminis = assay: Test Example 2: in vitro antimicrobial activity test, colony diameter on PDA plate with chemicals, 20° C., three days
Experimental: On the other hand, Glomerella cingulata was punched out from the vicinity of a Glomerella cingulata colony that was cultured in advance on another plate culture medium free of the chemicals using a cork borer having a diameter of 4 mm, and inoculated on the PDA plate culture medium in which the chemicals were mixed. After culturing at 25° C. for seven days, the diameter of the grown colony was measured. […] Additionally, in the above formula, R represents a fungal growth inhibition rate (%), dc represents the diameter of a colony on an untreated plate, and dt represents the diameter of a colony on a chemical-treated plate. […] Meanwhile, Gaeumannomyces graminis was punched out from the periphery of a colony of Gaeumannomyces graminis using a cork borer having a diameter of 4 mm, and inoculated onto the PDA agar plates in which the chemical(s) was (were) mixed.

[1] = tested on: Pseudocercosporella herpotrichoides; assay: Test Example 3: in vitro antimicrobial activity test, colony diameter on PDA plate with chemicals, 20° C., seven days
Experimental: (§1) On the other hand, Glomerella cingulata was punched out from the vicinity of a Glomerella cingulata colony that was cultured in advance on another plate culture medium free of the chemicals using a cork borer having a diameter of 4 mm, and inoculated on the PDA plate culture medium in which the chemicals were mixed. After culturing at 25° C. for seven days, the diameter of the grown colony was measured. […] Additionally, in the above formula, R represents a fungal growth inhibition rate (%), dc represents the diameter of a colony on an untreated plate, and dt represents the diameter of a colony on a chemical-treated plate.
(§2) Inhibition rate when used as a mixture (theoretical value)=α+(100−α)×β)/100 Note that, in the formula above, α and β respectively represent the inhibition rates of the compounds during single use of the compounds.
Pseudocercosporella herpotrichoides was punched out from the vicinity of a Pseudocercosporella herpotrichoides colony using a cork borer having a diameter of 4 mm, and inoculated on the PDA plate culture medium in which the chemicals were mixed. After culturing at 20° C. for seven days, the diameter of the grown colony was measured.

Septoria tritici = assay: Test Example 4: in vitro antimicrobial activity test, colony diameter on PDA plate with chemicals, 25° C., 14 days
Experimental: as §1, §2
In this test example, the antimicrobial action of a mixed formulation of compound (1) and trifloxystrobin against Septoria tritici was tested.
Septoria tritici was punched out from the vicinity of a Septoria tritici colony that was cultured in advance on another plate culture medium free of the chemicals using a cork borer having a diameter of 4 mm, and inoculated on the PDA plate culture medium in which the chemicals were mixed.

Rhynchosporium secalis = assay: Test Example 5: in vitro antimicrobial activity test, colony diameter on PDA plate with chemicals, 25° C., 14 days
Experimental: Additionally, in the above formula, R represents a fungal growth inhibition rate (%), dc represents the diameter of a colony on an untreated plate, and dt represents the diameter of a colony on a chemical-treated plate. […] Rhynchosporium secalis was punched out from the vicinity of a Rhynchosporium secalis colony that was cultured in advance on another plate culture medium free of the chemicals using a cork borer having a diameter of 4 mm, and inoculated on the PDA plate culture medium in which the chemicals were mixed. After culturing at 25° C. for 14 days, the diameter of the grown colony was measured.

Glomerella cingulata = assay: Test Example 1: in vitro antimicrobial activity test, colony diameter on PDA plate with chemicals, 25° C., seven days
Experimental: as §1

Pyrenophora graminea [2] = assay: Test Example 7: in vitro antimicrobial activity test (dimoxystrobin), same manner as Test Example 6; conditions: Compound (1) 0 ppm
Experimental: as §1, §2
(§3) Pyrenophora graminea was punched out from the vicinity of a Pyrenophora graminea colony that was cultured in advance on another plate culture medium free of the chemicals using a cork borer having a diameter of 4 mm, and inoculated on the PDA plate culture medium in which the chemicals were mixed. After culturing at 25° C. for 3 days, the diameter of the grown colony was measured.

Pyrenophora graminea [3] = assay: Test Example 6: in vitro antimicrobial activity test (picoxystrobin), colony diameter on PDA plate with chemicals, 25° C., 3 days; conditions: Compound (1) 0 ppm
Experimental: as §1, §2, §3

[4] = Oculimacula yallundae, read-out: Fungal growth inhibition rate (%) Measured value
[5] = Colletotrichum gloeosporioides, read-out: Fungal growth inhibition rate (%) Measured value
[6] = Zymoseptoria tritici, read-out: Fungal growth inhibition rate (%) Measured value

Question: With `CO/C=C(/C(=O)OC)c1ccccc1Oc1cc(Oc2ccccc2C#N)ncn1` [Azoxystrobin, azoxystrobin] as the compound, how does the “Fungal growth inhibition rate (%) Measured value” (Gaeumannomyces graminis; Compound (1) 0 ppm, Azoxystrobin 0.010 ppm) read?
Answer: 35%

Question: And the “Fungal growth inhibition rate (%) Measured value” (Gaeumannomyces graminis; Compound (1) 0 ppm, Azoxystrobin 2.5 ppm)?
Answer: 98%

Question: What does the source list for `COC(=O)C1(C)CCC(Cc2ccc(Cl)cc2)C1(O)Cn1cncn1` (centres unmarked) [Compound (1)]?
Answer: Fungal growth inhibition rate (%) Measured value ([1]; Compound (1) 0.078 ppm, Kresoxim-methyl 0 ppm): 7%; Fungal growth inhibition rate (%) Measured value (Septoria tritici; Compound (1) 0.02 ppm, Trifloxystrobin 0 ppm): 9%; Fungal growth inhibition rate (%) Measured value (Rhynchosporium secalis; Compound (1) 1.25 ppm, Fluoxastrobin 0 ppm): 87%; Fungal growth inhibition rate (%) Measured value (Gaeumannomyces graminis; Compound (1) 0.078 ppm, Azoxystrobin 0 ppm): 0%; Fungal growth inhibition rate (%) Measured value (Glomerella cingulata; Compound (1) 0.313 ppm, Pyraclostrobin 0 ppm): 45%

Question: Which “Fungal growth inhibition rate (%) Measured value” (Pyrenophora graminea [2]; Dimoxystrobin 0.005 ppm) does the source give for `CNC(=O)/C(=N/OC)c1ccccc1COc1cc(C)ccc1C` [Dimoxystrobin, dimoxystrobin] here?
Answer: 28%

Question: And the “Fungal growth inhibition rate (%) Measured value” (Pyrenophora graminea [2]; Dimoxystrobin 0.02 ppm)?
Answer: 55%

Question: What about the “Fungal growth inhibition rate (%) Measured value” (Pyrenophora graminea [2]; Dimoxystrobin 0.08 ppm) of the same compound?
Answer: 71%

Question: How did the inhibition at 0.005 ppm (Rhynchosporium secalis; Rhynchosporium secalis, read-out: Fungal growth inhibition rate (%) Measured value) turn out when `CO/N=C(/C1=NOCCO1)c1ccccc1Oc1ncnc(Oc2ccccc2Cl)c1F` [Fluoxastrobin, fluoxastrobin] was run?
Answer: 25%

Question: With `CO/N=C(/C(=O)OC)c1ccccc1COc1ccccc1C` [Kresoxim-methyl, kresoxim-methyl] as the compound, how does the inhibition at 0.02 ppm [1, 4] read?
Answer: 21%

Question: What about the inhibition at 0.08 ppm [1, 4] of the same compound?
Answer: 34%

Question: What about the inhibition at 0.31 ppm [1, 4] of the same compound?
Answer: 60%

Question: And the inhibition at 1.25 ppm [1, 4]?
Answer: 90%

Question: How did the “Fungal growth inhibition rate (%) Measured value” (Pyrenophora graminea [3]; Picoxystrobin 0.005 ppm) turn out when `CO/C=C(/C(=O)OC)c1ccccc1COc1cccc(C(F)(F)F)n1` [Picoxystrobin, picoxystrobin] was run?
Answer: 36%

Question: What about the “Fungal growth inhibition rate (%) Measured value” (Pyrenophora graminea [3]; Picoxystrobin 0.02 ppm) of the same compound?
Answer: 57%

Question: What about the “Fungal growth inhibition rate (%) Measured value” (Pyrenophora graminea [3]; Picoxystrobin 0.08 ppm) of the same compound?
Answer: 71%

Question: And the “Fungal growth inhibition rate (%) Measured value” (Pyrenophora graminea [3]; Picoxystrobin 0.31 ppm)?
Answer: 87%

Question: What about the “Fungal growth inhibition rate (%) Measured value” (Pyrenophora graminea [3]; Picoxystrobin 1.25 ppm) of the same compound?
Answer: 94%

Question: What does the source list for `COC(=O)N(OC)c1ccccc1COc1ccn(-c2ccc(Cl)cc2)n1` [Pyraclostrobin, pyraclostrobin]?
Answer: inhibition at 0.1575 ppm (Glomerella cingulata; [5]): 73%; inhibition at 0.63 ppm (Glomerella cingulata; [5]): 89%; inhibition at 10 ppm (Glomerella cingulata; [5]): 100%

Question: `CON=C(C(=O)OC)c1ccccc1CON=C(C)c1cccc(C(F)(F)F)c1` [Trifloxystrobin, trifloxystrobin] was tested. Which inhibition at 0.02 ppm (Septoria tritici; [6]) did it give?
Answer: 82%

Question: What about the inhibition at 0.08 ppm (Septoria tritici; [6]) of the same compound?
Answer: 84%

Question: What about the inhibition at 0.31 ppm (Septoria tritici; [6]) of the same compound?
Answer: 86%
